These results are taken from patent US8362008B2 (The University Of Edinburgh, priority 2007, dated 2013).

For the experiment, the target named is T1, human 11β-HSD1 enzyme (Homo sapiens, UniProt P28845).
T1 construct: stably transfected with a construct containing the full-length gene coding for the human 11β-HSD1 enzyme; expressed in transfected cells; host or cells: HEK293 (HEK293/11β-HSD1 cells)
Kind of experiment: Cellular in vitro 11β-HSD1 enzyme inhibition assay (SPA, HEK293/11β-HSD1 cells). It is filed as cell-based. The procedure:
Cellular In Vitro 11β-HSD1 Enzyme Inhibition Assay
Compounds were assessed by a Scintillation Proximity Assay (SPA) performed according to the following protocol:
HEK293 cells were stably transfected with a construct containing the full-length gene coding for the human 11β-HSD1 enzyme to create HEK293/11β-HSD1 cells. Cells were routinely cultured in DMEM containing 10% calf foetal serum, 1% glutamine, and 1% penicillin and streptomycin. Prior to assay, cells were plated at 2×10^4 cells/well in 96-well poly-D-Lys coated flat-bottomed microplates and incubated in 5% CO2, 95% O2 at 37° C. for 24 hours. The media in each well was removed immediately before assay.
Compounds to be tested were dissolved in DMSO at 10 mM and serially diluted into water containing 10% DMSO. Diluted compounds at a volume of 10 μL were added to wells of a 96-well V-bottomed microplate. […] This solution (100 μL/well) was transferred to the plate containing the cells. The plate was then incubated in 5% CO2, 95% O2 at 37° C. for 2 hours.
Following this incubation, 50 μL of the assay solution was transferred to each well of a 96-well scintillation microplate. A mixture consisting of anti-mouse YSi SPA beads, pre-mixed with anti-cortisol antibody in assay buffer (50 mM Tris.HCl, pH 7.0; 300 mM NaCl; 1 mM EDTA, 5% glycerol) was prepared and 50 μL added to each well of the scintillation microplate. An adhesive strip was applied to the microplate and the plate gently shaken for at least 2 hours at room temperature, and then spun briefly on a low speed centrifuge. The plate was read on a scintillation counter suitable for 96-well microplates. For the calculation of percentage inhibition, a series of wells were added to the plate that represented the assay maximum and the assay minimum: one set that contained substrate without cells (mimimum) and another set that contained substrate and cells without any compound (maximum).
The calculation of median inhibitory concentration (IC50) values for the compounds was performed using GraphPad Prism® software. Dose-response curves for each compound were plotted as fractional inhibition and data fitted to the four parameter logistic equation.

Setting [1] is: HEK293, less than or equal to 1000 nM (1 μM).
Where [2] appears, read: HEK293, more than 1000 nM (1.0 μM) and less than or equal to 30 μM.

T1 sequence (P28845 whole entry): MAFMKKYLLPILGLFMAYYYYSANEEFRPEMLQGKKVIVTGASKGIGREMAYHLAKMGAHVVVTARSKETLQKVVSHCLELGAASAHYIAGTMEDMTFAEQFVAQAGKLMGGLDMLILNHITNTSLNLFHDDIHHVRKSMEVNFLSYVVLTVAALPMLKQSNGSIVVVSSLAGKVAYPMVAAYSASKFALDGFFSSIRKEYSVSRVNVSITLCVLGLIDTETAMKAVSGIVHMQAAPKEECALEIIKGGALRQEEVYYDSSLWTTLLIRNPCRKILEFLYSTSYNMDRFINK

For the molecule `O=C(OCc1ccccc1)N1CCC(c2cc(C(=O)N3CCCCCC3)cs2)CC1` [CC-007, 4-[4-(Azepane-1-carbonyl)-thiophen-2-yl]-piperidine-1-carboxylic acid benzyl ester], the IC50 under setting [1] was at most 1000 nM.
The molecule `CC1(C)CCCN(C(=O)c2csc(C3CCN(C(=O)CCNS(C)(=O)=O)CC3)c2)CC1` [CC-097] returned an IC50 under setting [1] of at most 1000 nM.
As for `CC(=O)N1CCC(c2cc(C(=O)N3CCCCC3c3ccccc3)cs2)CC1` (stereo not drawn) [CC-098], the IC50 under setting [2] lay within 1000 to 30000 nM.
Under setting [1], `O=C(c1csc(C2CCNCC2)c1)N1CCCC2CCCCC21` (single isomer, unassigned) [CC-044, trans-(Octahydro-quinolin-1-yl)-(5-piperidin-4-yl-thiophen-3-yl)-methanone] gave an IC50 of at most 1000 nM.
In turn, `O=C(c1csc(C2CCNC2)c1)N1CCC[C@@H]2CCCC[C@@H]21` (relative stereo) [CC-177, cis-(Octahydro-quinolin-1-yl)-(5-pyrrolidin-3-yl-thiophen-3-yl)-methanone] gave an IC50 under setting [1] of at most 1000 nM.
For the molecule `O=C(c1cc(C2CCOCC2)sc1Cl)N1CCC2CCCCC2C1` (stereo not drawn) [CC-031], the IC50 under setting [1] was at most 1000 nM.
For the molecule `CCc1cc(C(=O)N2CCCCC2)c(Br)s1` [AA-002, (2-Bromo-5-ethyl-thiophen-3-yl)-piperidin-1-yl-methanone], the IC50 under setting [1] is at most 1000 nM.
Under setting [2], `CNCC(=O)N1CCC(c2cc(C(=O)N3CCCC4CCCCC43)cs2)CC1` (stereo not drawn) [CC-056] returned an IC50 of 1000 to 30000 nM.
For the molecule `O=C(CO)N1CCC(c2cc(C(=O)N3CCC[C@@H]4CCCC[C@@H]43)cs2)CC1` (relative stereo) [CC-053, cis-2-Hydroxy-1-{4-[4-(octahydro-quinoline-1-carbonyl)-thiophen-2-yl]-piperidin-1-yl}-ethanone], the IC50 under setting [1] was at most 1000 nM.
The molecule `O=C(c1csc(C2CCNCC2)c1)N1CCCCC1c1ccccc1` (stereo not drawn) [CC-017, (2-Phenyl-piperidin-1-yl)-(5-piperidin-4-yl-thiophen-3-yl)methanone] had an IC50 under setting [1] of at most 1000 nM.
Under setting [1], `O=C(C1CC1)N1CCC(c2cc(C(=O)N3CCCC4CCCCC43)cs2)CC1` (stereo not drawn) [CC-099] returned an IC50 of at most 1000 nM.
Regarding `CC(C)OC(=O)N1CCC(c2cc(C(=O)N3CCCC4CCCCC43)cs2)CC1` (stereo not drawn) [CC-067], under setting [2], the IC50 is 1000 to 30000 nM.
Consider `O=C(c1csc(C2CCNCC2)c1)N1CCCC(c2ccccc2)C1` (stereo not drawn) [CC-018], for which the IC50 under setting [2] is 1000 to 30000 nM.
In turn, `CN(C)CCNC(=O)N1CCC(c2cc(C(=O)N3CCCC4CCCCC43)cs2)CC1` (stereo not drawn) [CC-162] gave an IC50 under setting [2] of 1000 to 30000 nM.
For `COCCNC(=O)N1CCC(c2cc(C(=O)N3CCCC4CCCCC43)cs2)CC1` (stereo not drawn) [CC-164], the IC50 under setting [1] is at most 1000 nM.
Molecule `CC1(C)CCCN(C(=O)c2csc(C3CCN(CC(N)=O)CC3)c2)CC1` [CC-139] showed an IC50 under setting [2] of 1000 to 30000 nM.
Molecule `CCc1cc(C(=O)N2CCCC(C)(C)CC2)cs1` [AA-019] registered an IC50 under setting [1] of at most 1000 nM.
With `CCc1cc(C(=O)N2CCCCCC2)c(C#N)s1` [AA-006], the IC50 under setting [2] lay in the range of 1000 to 30000 nM.
As to `CNCC(=O)N1CCC(c2cc(C(=O)N3CCC[C@@H]4CCCC[C@@H]43)cs2)CC1` (relative stereo) [CC-055, cis-2-Methylamino-1-{4-[4-(octahydro-quinoline-1-carbonyl)-thiophen-2-yl]-piperidin-1-yl}-ethanone], the IC50 under setting [2] fell in the range of 1000 to 30000 nM.
As for `O=C(NCCO)N1CCC(c2cc(C(=O)N3CCC[C@@H]4CCCC[C@@H]43)cs2)CC1` (racemic) [CC-157, cis-4-[4-(Octahydro-quinoline-1-carbonyl)-thiophen-2-yl]-piperidine-1-carboxylic acid(2-hydroxy-ethyl)-amide], the IC50 under setting [1] was at most 1000 nM.
As to `O=C(c1csc(C2=CCNCC2)c1)N1CCCCC1c1ccccc1` (stereo not drawn) [CC-123], under setting [1], the IC50 was at most 1000 nM.
The same measure, in the same setting: for `O=C1COCCN1c1cc(C(=O)N2CCCC3CCCCC32)cs1` (stereo not drawn) [CC-050] the value was at most 1000 nM; for `O=C(c1cc(C2CCOCC2)sc1Cl)N1CCCCCC1` [CC-006, Azepan-1-yl-[2-chloro-5-(tetrahydro-pyran-4-yl)-thiophen-3-yl]methanone], at most 1000 nM; for `O=C(N1CCCC1)N1CCC(c2cc(C(=O)N3CCCC4CCCCC43)cs2)CC1` (stereo not drawn) [CC-116], at most 1000 nM.
In turn, `O=C(c1csc(COc2ccc(-n3cncn3)cc2)c1)N1CCCCC1` [BB-004] registered an IC50 under setting [2] of 1000 to 30000 nM.
As to `O=C(c1csc(C2CCOCC2)c1)N1CCC[C@@H]2CCCC[C@@H]21` (racemic) [CC-027, cis-(octahydro-quinolin-1-yl)-[5-(tetrahydro-pyran-4-yl)-thiophen-3-yl]-methanone], the IC50 under setting [1] is at most 1000 nM.
On to `CC(=O)N1CCC(c2cc(C(=O)N3CCCC(C)(C)CC3)cs2)CC1`, for which the IC50 under setting [1] was at most 1000 nM.
On to `O=C(CCN1CCCCC1)N1CCC(c2cc(C(=O)N3CCC[C@@H]4CCCC[C@@H]43)cs2)CC1` (relative stereo) [CC-061, cis-1-{4-[4-(Octahydro-quinoline-1-carbonyl)-thiophen-2-yl]-piperidin-1-yl}-3-piperidin-1-yl-propan-1-one], for which the IC50 under setting [2] was 1000 to 30000 nM.
Under setting [2], `O=C(c1csc(C2CCN(S(=O)(=O)C3CC3)CC2)c1)N1CCCC2CCCCC21` (stereo not drawn) [CC-093] came in with an IC50 of 1000 to 30000 nM.
Under setting [1], `O=C(c1csc(C2=CCNCC2)c1)N1CCCC(F)(F)CC1` [CC-126] displayed an IC50 of at most 1000 nM.
With `CCCCCc1cc(C(=O)N2CC3(C)CC2CC(C)(C)C3)cs1` (stereo not drawn) [AA-017], the IC50 under setting [1] is at most 1000 nM.
With `O=C(c1csc(C2CCNCC2)c1)N1CCCCCC1c1ccccc1` (stereo not drawn) [CC-107], under setting [2], the IC50 was in the range of 1000 to 30000 nM.
`O=C(c1csc(C2CCN(S(=O)(=O)c3ccccc3)CC2)c1)N1CCCC2CCCCC21` (stereo not drawn) [CC-092] showed an IC50 under setting [2] of 1000 to 30000 nM.
`O=C(CN1CCOCC1)N1CCC(c2cc(C(=O)N3CCCC4CCCCC43)cs2)CC1` (stereo not drawn) [CC-060]: the concentration for half-maximal inhibition (IC50) under setting [2] was in the range of 1000 to 30000 nM.
The molecule `COCc1cc(C(=O)N2CCCCCC2)cs1` [BB-005] registered an IC50 under setting [2] of 1000 to 30000 nM.
As for `CCc1cc(C(=O)N2CCCCCC2)c(Cl)s1` [AA-004], the IC50 under setting [1] is at most 1000 nM.
Take `O=C(c1csc(C2CCCCC2)c1)N1CCCC2(CCCCC2)C1` [DD-006]: the IC50 under setting [2] lay within 1000 to 30000 nM.
Take `O=C(c1ccccc1)N1CCC(c2cc(C(=O)N3CCCC4CCCCC43)cs2)CC1` (stereo not drawn) [CC-110]: the IC50 under setting [2] fell in the range of 1000 to 30000 nM.
As for `O=C(c1csc(C2CCNCC2)c1)N1CCCC1c1ccccc1` (stereo not drawn) [CC-020], the IC50 under setting [2] lay in the range of 1000 to 30000 nM.
`CC1(C)CCCN(C(=O)c2csc(C3CCN(C(=O)CO)CC3)c2)CC1` [CC-113] displayed an IC50 under setting [1] of at most 1000 nM.
The molecule `CCc1cc(C(=O)N2CCCC3CCCCC32)cs1` (stereo not drawn) [AA-009] returned an IC50 under setting [1] of at most 1000 nM.
Molecule `O=C(NCc1ccccn1)N1CCC(c2cc(C(=O)N3CCCC4CCCCC43)cs2)CC1` (stereo not drawn) [CC-166] registered an IC50 under setting [1] of at most 1000 nM.
Regarding `CCc1cc(C(=O)N2C3CCCC2CC3)cs1` [AA-016], under setting [1], the IC50 was at most 1000 nM.
As for `CC(=O)N1CCC(c2cc(C(=O)N3CCCC4CCCCC43)cs2)CC1` (stereo not drawn) [CC-036], the IC50 under setting [2] was in the range of 1000 to 30000 nM.
Regarding `CCc1cc(C(=O)N2CCCCC2)c(C#N)s1` [AA-003, 5-Ethyl-3-(piperidine-1-carbonyl)-thiophene-2-carbonitrile], the IC50 under setting [2] lay in the range of 1000 to 30000 nM.
The molecule `O=C(c1csc(C2CCNCC2)c1)N1CCC[C@@H]2CCCC[C@@H]21` (single isomer, unassigned) [CC-159, cis-(octahydro-quinolin-1-yl)-(5-piperidin-4-yl-thiophen-3-yl)-methanone] registered an IC50 under setting [1] of at most 1000 nM.
With `O=C(c1cccnc1)N1CCC(c2cc(C(=O)N3CCCC4CCCCC43)cs2)CC1` (stereo not drawn) [CC-103], the IC50 under setting [1] is at most 1000 nM.
`CCc1cc(C(=O)N2CCC(c3ccccc3)C2)c(Cl)s1` (stereo not drawn) [AA-008] gave an IC50 under setting [2] of 1000 to 30000 nM.
